Experimental data as given in patent US10993920B2, “2-dodecyl-6-methoxycyclohexa-2,5-diene-1,4-dione as a cancer therapeutic” (MIDDLE TENNESSEE STATE UNIVERSITY, priority 2014, dated 2021).

What was measured:
[1] = test system: NF-κB nuclear translocation in BT20 cells; assay: Inhibition of TNF-α activated NF-κB translocation (HCS); type: cell-based, human; details: BT20, 10 ng/ml TNF-α; 10 μM more significant than 32 and 100 μM
MCF-7 [2] = assay: Cell cycle analysis (PI staining); type: cell-based, human; details: MCF-7, 24 h; increased from 52%; not concentration-dependent
Protocol: (§1) MCF-7 and BT20 cells were first synchronized in the G0 phase by culturing cells for 24 h in serum-free medium, and then treated with 100 μM DMDD for 24 h. Cell cycle analysis was performed using propidium iodide (PI) (Millipore) staining as described (27). Cells were analyzed using a Guava flow cytometer with InCyte software (Millipore).

BT20 [3] = assay: Cell cycle analysis (PI staining); type: cell-based, human; details: BT20, 24 h; increased from 46%; not concentration-dependent
Protocol: as §1

[4] = diabetic mouse model; cited from earlier work
caspase 8 in BT20 cells = assay: Caspase-Glo 8 activation assay; type: cell-based, human; details: BT20, 4 h, depending on the concentration
Protocol: (§2) Caspase 3/7 and caspase 8 activities were analyzed using an in-situ luminescent maker in MCF-7 and BT20 cells respectively. Cells were seeded in a white 96-well plate (Greiner), treated with 100 μM DMDD for 4 h. Caspases activity was then determined using the Caspase-Glo 3/7 Assay (Promega) or the Caspase-Glo 8 Assay (Promega) according to the manufacturer's instructions. Briefly, cells were incubated with Caspase-Glo 3/7 substrate or Caspase-Glo 8 substrate and the luminescence of each sample was measured using a SpectraMax M2e Microplate Reader (Molecular Devices).

caspase 8 in MCF-7 cells = assay: Caspase-Glo 8 activation assay; type: cell-based, human; details: MCF-7, 4 h, depending on the concentration
Protocol: as §2

MCF-7 [5] = assay: Apoptosis assay (Annexin V/7-AAD); type: cell-based, human; details: MCF-7, 48 h, concentration-dependent
Protocol: (§3) MCF-7 and BT20 cells were seeded in a 96-well plate (Corning Costar) at a density of 8,000 cells/well and were subsequently treated with different concentrations (10, 32, 100 μM) of DMDD for 48 h. Afterwards, the cells were stained with Annexin V (Millipore) and 7-Aminoactinomycin (7-AAD) (Millipore), and analyzed on a Guava flow cytometer using InCyte software (Millipore).

BT20 [6] = assay: Apoptosis assay (Annexin V/7-AAD); type: cell-based, human; details: BT20, 48 h, concentration-dependent
Protocol: as §3

[7] = test system: LPS-induced TNF-α production in THP-1 cells; assay: Human TNF-α ELISA, LPS induced THP-1 cells; type: cell-based; details: THP-1, 12.5-50 μM pretreatment 30 min, 100 ng/ml LPS 4 h
Protocol: THP-1 cells were seeded in a 96 well plate at a density of 5×10^5 cells/well, and incubated with 100 nM phorbol-12-myristate-13-acetate (PMA) (Sigma) for 72 h. […] Dexamethasone at 1 μM (Sigma) was used as a positive control. After 4 h of stimulation, supernatants were collected for the quantification of human TNF-α using the Duoset enzyme-linked immunosorbent assay (ELISA) development kit (R&D Systems). AlamarBlue cell viability reagent (Invitrogen) was used to access cell integrity, after the supernatant was removed, at a fluorescent excitation wavelength of 555 nm and emission wavelength of 590 nm.

[8] = single dose 5,000 mg/kg body weight; cited from earlier work
[9] = test system: NF-κB nuclear translocation in MCF-7 cells; assay: Inhibition of TNF-α activated NF-κB translocation (HCS); type: cell-based, human; details: MCF-7, 2 h, 10 ng/ml TNF-α; concentration-dependent
Protocol: MCF-7 cells were seeded in a 96 well plate (Corning Costar) at a density of 8,000 cells/well and then treated with 100 μM DMDD for 2 h, followed by the addition of 10 ng/ml tumor necrosis factor-alpha (TNF-α) (Sigma). Untreated cells and cells treated with 10 ng/ml TNF-α alone served as controls. Cells were fixed, permeabilized, and sequentially stained with Nuclear factor kappa B (NF-κB) primary antibody, Dylight 488-conjugated secondary antibody, and Hoechst 33342 dye. The Hoechst and DyLight fluorophores detect changes in nuclear morphology (blue fluorescence) and NF-κB distribution (green fluorescence), respectively. The samples were analyzed on an Arrayscan VTI HCS Reader (Thermo Scientific). The Nuclear Translocation BioApplication (Thermo Scientific) was used for image acquisition and analysis. For each well, at least 400 cells were automatically acquired and analyzed. The translocation index was calculated by measuring the average intensity difference of NF-κB between the identified cytoplasmic region and nuclear region (MEAN_CircRingAvgIntenDiffCh2).

MCF-7 [10] = assay: Anti-proliferation assay (PrestoBlue) and IC50 determination; type: cell-based, human
Protocol: (§4) BT20 and MCF-7, human breast carcinoma cell lines (ATCC), were maintained in RPMI 1640 and Dulbecco's Modified Eagle Medium (DMEM) (Sigma), respectively. THP-1, a human monocytic leukemic cell line (ATCC), was maintained in RPMI 1640. HMEC, a normal human mammary epithelial cell line (ATCC), was maintained in McCoy's 5A (ATCC). All mediums were supplemented with 10% fetal bovine serum (FBS) (Gibco) and 1% penicillin-streptomycin and all cells were incubated in a humidified atmosphere with 5% CO2 at 37° C.
(§5) The proliferation inhibition potential of DMDD was determined in human breast cancer cell lines MCF-7 and BT20 by a fluorescence dye staining method with the normal cell line HMEC serving as a control. Cells were seeded at a density of 4˜5×10^3 cells/well in a 96-well tissue culture-treated plate (Corning Costar) and were incubated overnight. They were then treated with DMDD at final concentrations of 320 μM, 100 μM, 32 μM, 10 μM, 3.2 μM, 1 μM, and 0.32 μM. An experimental control with cells only was also included. After incubation for 48 h, the viability of cells was assessed using PrestoBlue dye (Invitrogen) according to manufacturer's protocol. The fluorescence intensity was measured on a SpectraMax M2e microplate reader (Molecular Devices, Inc.) at a fluorescent excitation wavelength of 555 nm and emission wavelength of 590 nm. The results were expressed as a percentage, relative to untreated control cells, and the half maximal inhibitory concentration (IC50) values were calculated using non-linear regression analysis.

BT20 [11] = assay: as above; type: cell-based, human
Protocol: as §4, §5

MCF-7 [12] = assay: Multi parameter cytotoxicity measurement (HCS); type: cell-based, human; details: MCF-7, 48 h, dose-dependent
Protocol: (§6) MCF-7 and BT20 cells were seeded in a 96-well plate (Corning Costar) at a density of 4,000 cells/well and subsequently treated with different concentrations (10, 32, 100 μM) of DMDD for 48 h. Non-treated cells and cells treated with 100 μM Valinomycin were used as negative (control) and positive controls, respectively. Afterwards, the cells were stained with a mixture of fluorescent dyes including Hoechst 33342, cell permeability dye and mitochondrial membrane potential dye (Thermo Scientific). These dyes indicated changes in nuclear morphology (Channel 1), cell membrane permeability (Channel 2) and mitochondrial transmembrane potential (Channel 3), respectively. The cells were fixed and washed, and images for each fluoroprobe were acquired at different channels using suitable filters with a 20× objective and analyzed on the Arrayscan VTI HCS Reader (Thermo Scientific). The Cell Health Profiling BioApplication (Thermo Scientific) was used for image acquisition and analysis. For each well, at least 400 cells were automatically acquired and analyzed. The average fluorescent intensity was used to quantify changes in each channel.

BT20 [13] = assay: Multi parameter cytotoxicity measurement (HCS); type: cell-based, human
Protocol: as §6

[14] = test system: caspase 3/7 in MCF-7 cells; assay: Caspase-Glo 3/7 activation assay; type: cell-based, human; details: MCF-7, 4 h, concentration-dependent
Protocol: as §2, with “Cells were seeded in a white 96-well plate (Greiner), treated with 100 μM DMDD for 4 h.” left out

MCF-7 [15] = assay: Oxidative stress determination (DHE, HCS); type: cell-based, human; details: 48 h
Protocol: (§7) MCF-7 and BT20 cells were seeded in a 96-well tissue culture-treated plate (Corning Costar) at a density of 8,000 cells/well and were subsequently treated with different concentrations (10, 32, 100 μM) of DMDD for 48 h. Non-treated cells served as negative control, and cells treated with 1 μM Retenone served as positive control. Afterwards, the cells were stained with Hoechst 33342 (Thermo Scientific) and dihydroethidium (DHE) (Sigma), fixed and evaluated on an ArrayScan VTI HCS Reader (Thermo Scientific). The generation of ROS in cells was quantified by the oxidation of non-fluorescent DHE to fluorescent ethidium, which subsequently binds to DNA. The Nuclear Translocation BioApplication software (Thermo Scientific) was used for image acquisition and analysis. For each well, at least 400 cells were automatically acquired and analyzed. Oxidative stress activation was assessed by the DHE staining in the nucleus and measured by the average intensity of fluorescent ethidium in the identified nuclear region (MEAN_CircAvgIntenCh2).

BT20 [16] = assay: Oxidative stress determination (DHE, HCS); type: cell-based, human; details: 48 h
Protocol: as §7

THP-1 = assay: AlamarBlue cell viability of THP-1 cells; type: cell-based, human; details: with or without LPS stimulation
Protocol: THP-1 cells were seeded in a 96 well plate at a density of 5×10^5 cells/well, and incubated with 100 nM phorbol-12-myristate-13-acetate (PMA) (Sigma) for 72 h. After washing the wells with warm RPMI 1640 medium, cells were pretreated with various concentrations of DMDD (10, 32, 100 μM) for 30 minutes followed by 100 ng/ml Salmonella enterica serotype typhimurium lipopolysaccharide (LPS) (Sigma). Dexamethasone at 1 μM (Sigma) was used as a positive control. After 4 h of stimulation, supernatants were collected for the quantification of human TNF-α using the Duoset enzyme-linked immunosorbent assay (ELISA) development kit (R&D Systems). AlamarBlue cell viability reagent (Invitrogen) was used to access cell integrity, after the supernatant was removed, at a fluorescent excitation wavelength of 555 nm and emission wavelength of 590 nm.

MCF-7 [17] = assay: Cytochrome c release assay; type: cell-based, human; details: MCF-7, 48 h
Protocol: (§8) MCF-7 and BT20 cells were seeded in a 96-well plate (Corning Costar) at a density of 8,000 cells/well and were subsequently treated with 100 μM of DMDD for 48 h. The percentage of cells releasing cytochrome c from mitochondria was determined using the FlowCellect Cytochrome c Kit (Millipore) according to the manufacturer's protocol. Briefly, cells were permeabilized, fixed, and stained with either anti-IgG1-FITC Isotype control or anti-Cytochrome c-FITC dye. Data was acquired and analyzed using a Guava flow cytometer and InCyte software (Millipore).

BT20 [18] = assay: Cytochrome c release assay; type: cell-based, human; details: BT20, 48 h
Protocol: as §8

[19] = test system: caspase-3, -8, -9 expression in pancreas tissue; details: pancreas tissue of mice; cited from earlier work
HMEC = assay: Anti-proliferation assay (PrestoBlue), normal cell control; type: cell-based, human; details: for cell death: HMEC
Protocol: as §4, §5

[20] = test system: caspase 3/7 in BT20 cells; assay: Caspase-Glo 3/7 activation assay; type: cell-based, human; details: BT20, 4 h, concentration-dependent

Compound: CCCCCCCCCCCCC1=CC(=O)C=C(OC)C1=O [DMDD, 2-dodecyl-6-methoxycyclohexa-2,5-diene-1,4-dione]
- inhibition of TNF-α-induced NF-κB nuclear translocation [1]: significant inhibition
- percentage of G1 phase cells (MCF-7 [2]): 71%
- percentage of G1 phase cells (BT20 [3]): 65%
- effective dosage [4]: 12.5 to 25 mg/kg
- caspase 8 activity increase (caspase 8 in BT20 cells): 2-5 fold
- caspase 8 activity increase (caspase 8 in MCF-7 cells): 2-5 fold
- apoptosis induction (MCF-7 [5]): induced apoptosis
- apoptosis induction (BT20 [6]): induced apoptosis
- TNF-α level in supernatants relative to LPS alone [7]: significant reduction
- acute toxicity [8]: did not cause any acute toxicity
- inhibition of TNF-α-induced NF-κB nuclear translocation [9]: significant inhibition
- IC50 (MCF-7 [10]; Homo sapiens, MCF7, MCF-7, 48 h treatment): 3.44 µM
- cell death (MCF-7 [10]; MCF-7, 3.2 μM): 49.9%
- cell death (MCF-7 [10]; MCF-7, 10 μM): 84.5%
- cell death (BT20 [11]; BT20, 3.2 μM): 43.8%
- cell death (BT20 [11]; BT20, 10 μM): 63.5%
- IC50 (BT20 [11]; Homo sapiens, BT-20, BT20, 48 h treatment): 5.03 µM
- mitochondrial membrane potential (MCF-7 [12]): loss of mitochondrial potential
- plasma membrane permeability (MCF-7 [12]): increased plasma membrane permeability
- nuclear morphology (BT20 [13]; BT20, 100 μM, 48 h): nuclear condensation
- mitochondrial membrane potential (BT20 [13]; BT20, 48 h, dose-dependent): loss of mitochondrial potential
- plasma membrane permeability (BT20 [13]; BT20, 48 h, dose-dependent): increased plasma membrane permeability
- caspase 3/7 activity vs untreated cells [14]: increased significantly
- ROS level versus untreated control (MCF-7 [15]; MCF-7, 10 μM): nearly two-fold
- ROS level versus non-treated control (MCF-7 [15]; MCF-7, 33 μM): nearly three-fold
- ROS level versus untreated control (MCF-7 [15]; MCF-7, 100 μM): nearly two-fold
- ROS level versus untreated control (BT20 [16]; BT20, 10 μM): nearly two-fold
- ROS level versus non-treated control (BT20 [16]; BT20, 33 μM): nearly three-fold
- ROS level versus untreated control (BT20 [16]; BT20, 100 μM): nearly two-fold
- viability of THP-1 cells (THP-1): did not affect the viability
- cytochrome c release from mitochondria (MCF-7 [17]): released
- cytochrome c release from mitochondria (BT20 [18]): released
- caspase-3, -8, -9 expression [19]: significantly reduced
- cell death (HMEC; 3.2 μM): not affected
- cell death (HMEC; 10 μM): 12.7%
- IC50 (HMEC; Homo sapiens, HMEC normal cells, 48 h treatment): 48.1 µM
- caspase 3/7 activity vs untreated cells [20]: increased significantly
